Four compounds from patent US11233200B2, “Condensed cyclic compound, composition including the same, and organic light-emitting device including the condensed cyclic compound” (Samsung Electronics Co., Ltd., priority 2018, dated 2022) can be followed below.

The nature of data set [1]: Measurement of triplet energy level. Format: physicochemical. The conditions noted are these: spin-coated film of about 50 nm from 3 weight % toluene solution; PL spectrum at 77 K, peak of shortest wavelength. As to the method:
Compound 1 was dissolved in toluene to a concentration of 3 weight % to prepare a solution. The same applied to Compounds 3 and C1 to prepare solutions. The solutions were spin-coated at a rotational speed of 1,600 revolutions per minute (rpm) and dried on a hot plate at a temperature of 120° C. for 15 minutes to obtain films (samples) having a thickness (film thickness after dry) of about 50 nanometers (nm). The samples were cooled to a temperature of 77 Kelvins (K) (−196° C.) and photoluminescence (PL) spectrums were obtained. The triplet energy levels (electron volts, eV) were calculated at the peak values of the shortest wavelengths of the PL spectrums.

Data set [2] in a line: Measurement of solubility. Format: physicochemical. The conditions noted are these: methyl benzoate (solvent), room temperature, ultrasonic waves. As to the method:
50 milligrams (mg) of Compound 1 and 500 mg of methyl benzoate (solvent) were added to a colorless sample bottle, ultrasonic waves were irradiated thereon at room temperature for 5 minutes, and the presence or absence of Compound 1 was visually confirmed. […] When Compound 1 remains, a small amount of a solvent was added thereto, the irradiation of ultrasonic waves was repeated, and an amount of the solvent was measured until Compound 1 was completely dissolved. The solubility was measured from the amount of the solvent finally used. The solubility values of Compounds 3 and C1 were calculated in the same manner.

Bounds are passed on as bounds.

`c1ccc(-c2cccc(-c3cccc(-c4cccc5c4-c4ccccc4C54c5ccccc5-c5c(-c6cccc(-c7cccc(-c8ccccc8)c7)c6)cccc54)c3)c2)cc1` [Compound 1] displayed a Triplet energy level in data set [1] of 2.96 eV. Besides, in data set [2], the Solubility is reported as 7 weight %.
In turn, `c1ccc(-c2cc(-c3ccccc3)cc(-c3cccc(-c4cccc5c4-c4ccccc4C54c5ccccc5-c5c(-c6cccc(-c7cc(-c8ccccc8)cc(-c8ccccc8)c7)c6)cccc54)c3)c2)cc1` [Compound 3] had a Triplet energy level in data set [1] of 2.96 eV. Also, the Solubility in data set [2] was found to be 9 weight %.
`c1ccc(-c2cccc(-c3cccc(-c4ccc5c(c4)C4(c6ccccc6-5)c5ccccc5-c5ccc(-c6cccc(-c7cccc(-c8ccccc8)c7)c6)cc54)c3)c2)cc1` [Compound C1] returned a Triplet energy level in data set [1] of 2.81 eV. The Solubility in data set [2] was found to be 2 weight %.
Compound `c1ccc(-c2nc(-c3ccccc3)nc(-c3cccc(-c4cccc(-c5cccc6c5-c5ccccc5C65c6ccccc6-c6c(-c7ccccc7)cccc65)c4)c3)n2)cc1` (centres unmarked) [Compound C2] had a Triplet energy level in data set [1] of 2.91 eV. This compound gave a Solubility in data set [2] of less than 1 weight %.
